Target: T1, 5-lipoxygenase (Rattus norvegicus, UniProt P12527)
T1 construct: The 100,000 x g supernatant fraction of Rat Basophilic Leukemia Cell Homogenate (RBL-1) serves as a 5-lipoxygenase enzyme source; endogenous in cells; host or cells: RBL-1 (rat basophilic leukemia) cells, 100,000 x g supernatant of homogenate
T1 sequence (P12527 1-673): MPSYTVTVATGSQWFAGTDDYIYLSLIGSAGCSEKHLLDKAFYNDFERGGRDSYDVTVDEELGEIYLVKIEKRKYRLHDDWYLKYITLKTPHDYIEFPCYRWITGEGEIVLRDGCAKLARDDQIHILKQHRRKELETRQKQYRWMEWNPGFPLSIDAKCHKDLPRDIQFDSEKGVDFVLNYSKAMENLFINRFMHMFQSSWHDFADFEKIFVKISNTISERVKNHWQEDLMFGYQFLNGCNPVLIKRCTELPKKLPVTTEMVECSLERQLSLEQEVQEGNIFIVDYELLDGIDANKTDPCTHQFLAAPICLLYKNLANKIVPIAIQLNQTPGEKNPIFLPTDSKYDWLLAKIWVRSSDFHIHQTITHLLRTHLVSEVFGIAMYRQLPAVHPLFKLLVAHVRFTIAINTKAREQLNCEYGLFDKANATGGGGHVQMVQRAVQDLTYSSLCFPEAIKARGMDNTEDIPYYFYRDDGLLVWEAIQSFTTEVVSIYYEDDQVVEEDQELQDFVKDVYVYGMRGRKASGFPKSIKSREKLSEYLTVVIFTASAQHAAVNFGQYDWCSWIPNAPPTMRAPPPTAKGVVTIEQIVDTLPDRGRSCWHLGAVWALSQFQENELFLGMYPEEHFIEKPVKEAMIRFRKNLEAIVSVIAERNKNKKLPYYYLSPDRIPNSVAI
Experiment: Inhibition of 5-lipoxygenase, in vitro (5-HETE synthesis, RBL-1 homogenate 100,000 x g supernatant)
Type: biochemical
Settings: RBL-1 100,000 x g supernatant, [1-14C]-arachidonic acid and Ca++
Protocol: The compounds of the invention are evaluated with respect to 5-lipoxygenaseinhibition according to the following assay procedure.
Inhibition of 5-lipoxygenase, in vitro: anti-inflammatory, anti-allergy activities.
The 100,000 x g supernatant fraction of Rat Basophilic Leukemia Cell Homogenate (RBL-1) serves as a 5-lipoxygenase enzyme source. The enzyme is incubated with [1-^14 C)-arachidonic acid and Ca++ in the presence and absence of test compound. The product of 5-lipoxygenase, 5-hydroxyeicosatetraenoic acid (5-HETE), is separated by thin-layer chromatography and measured by radioactivity. A compound inhibiting 5-HETE synthesis by 30% or more is considered active at that concentration.

IC50 [µM] | SMILES
0.56 | CC(C)N(Cc1ccccc1)C(=O)CCSc1cc(C(C)(C)C)c(O)c(C(C)(C)C)c1 [Example 4, 3-[[3,5-bis(1,1-dimethylethyl)-4-hydroxylphenyl]thio]-N-(1-methylethyl)-N-(phenylmethyl)propanamide]
1.4 | CC(C)N(C(=O)CCSc1cc(C(C)(C)C)c(O)c(C(C)(C)C)c1)C(C)C [Example 5, 3-[[3,5-bis(1,1-dimethylethyl)-4-hydroxyphenyl]thio]-N,N-bis(1-methylethyl)propanamide]

Reference: US4835189A, “Phenolic thioalkylamides as inhibitors of 5-lipoxygenase” (G. D. Searle & Co., priority 1987, dated 1989)
